ChEMBL document CHEMBL5247663, “Evaluating the druggability of TrmD, a potential antibacterial target, through design and microbiological profiling of a series of potent TrmD inhibitors” (Bioorg Med Chem Lett, 2023)
Converted amounts (≈) assume the structure as drawn.

Columns and labels:
[1] = biological target: T1, tRNA (guanine-N(1)-)-methyltransferase (Escherichia coli (strain K12), UniProt P0A873); assay: Inhibition of Escherichia coli TrmD
T1 sequence (P0A873 whole entry): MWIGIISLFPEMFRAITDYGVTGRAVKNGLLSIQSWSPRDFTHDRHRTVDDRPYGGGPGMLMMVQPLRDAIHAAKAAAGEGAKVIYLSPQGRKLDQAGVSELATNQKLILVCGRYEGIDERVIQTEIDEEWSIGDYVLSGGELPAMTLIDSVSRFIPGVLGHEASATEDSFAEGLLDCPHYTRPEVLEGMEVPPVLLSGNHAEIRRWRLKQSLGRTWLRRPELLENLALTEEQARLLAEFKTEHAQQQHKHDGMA

[2] = test system: Escherichia coli; assay: Antibacterial activity against efflux-defective Escherichia coli N43 deficit of AcrAB-TolC assessed as inhibition of bacterial growth in presence of 4 ug/ml membrane-permeabilising agent, polymyxin B; type: functional
[3] = test system: Haemophilus influenzae; assay: Antibacterial activity against Haemophilus influenzae ATCC 49247 assessed as inhibition of bacterial growth; type: functional
[4] = test system: Escherichia coli; assay: Antibacterial activity against efflux-defective Escherichia coli N43 deficit of AcrAB-TolC assessed as inhibition of bacterial growth; type: functional
[5] = Lipophilicity, logD of the compound at pH 7.4; type: physicochemical; conditions: buffer
[6] = test system: Yersinia pestis; assay: Antibacterial activity against Yersinia pestis CO92 assessed as inhibition of bacterial growth; type: functional
[7] = test system: Staphylococcus epidermidis; assay: Antibacterial activity against Staphylococcus epidermidis ATCC 12228 assessed as inhibition of bacterial growth; type: functional
[8] = test system: Enterococcus faecium; assay: Antibacterial activity against Enterococcus faecium ATCC 19434 assessed as inhibition of bacterial growth; type: functional
[9] = test system: Moraxella catarrhalis; assay: Antibacterial activity against Moraxella catarrhalis ATCC 25240 assessed as inhibition of bacterial growth; type: functional
[10] = test system: Coxiella burnetii; assay: Antibacterial activity against Coxiella burnetii Nine Mile assessed as inhibition of bacterial growth; type: functional
[11] = test system: Francisella tularensis; assay: Antibacterial activity against Francisella tularensis-Schu S4 assessed as inhibition of bacterial growth; type: functional
[12] = test system: Bacillus subtilis; assay: Antibacterial activity against Bacillus subtilis ATCC 6633 assessed as inhibition of bacterial growth; type: functional
[13] = test system: Pseudomonas aeruginosa; assay: Antibacterial activity against Pseudomonas aeruginosa ATCC 27853 assessed as inhibition of bacterial growth; type: functional
[14] = test system: Neisseria gonorrhoeae; assay: Antibacterial activity against Neisseria gonorrhoeae ATCC 49226 assessed as inhibition of bacterial growth; type: functional
[15] = Cytotoxicity against human HepG2 cells; type: toxicity, cell-based
[16] = test system: Streptococcus pneumoniae; assay: Antibacterial activity against Streptococcus pneumoniae ATCC 49619 assessed as inhibition of bacterial growth; type: functional
[17] = test system: Burkholderia cepacia; assay: Antibacterial activity against Burkholderia cepacia ATCC 25416 assessed as inhibition of bacterial growth; type: functional
[18] = test system: Acinetobacter baumannii; assay: Antibacterial activity against Acinetobacter baumannii NCTC 13420 assessed as inhibition of bacterial growth; type: functional
[19] = biological target: T1, tRNA (guanine-N(1)-)-methyltransferase; assay: Binding affinity to Escherichia coli TrmD by surface plasmon resonance assay
[20] = test system: Escherichia coli; assay: Antibacterial activity against Escherichia coli W4573 harboring functional AcrAB-TolC assessed as inhibition of bacterial growth

NC(=O)c1ccc2[nH]ccc2c1
IC50 [1]: 160 µM

NC(=O)c1ccc(N)cc1
IC50 [1]: 670 µM

NC(=O)c1cnc2c(ccn2CC(=O)NC2CNC2)c1
IC50 [1]: 4.5 µM

NC(=O)c1cnc2c(ccn2CC(=O)NC2CCNCC2)c1
IC50 [1]: 6.5 µM

NC(=O)c1ccc(NCc2cccc(N3CCNC(C(F)(F)F)C3)c2)nc1 (centres undefined)
IC50 [1]: > 10 µM

NCc1ccc(Cn2ccc3cc(C(N)=O)ccc32)cc1
IC50 [1]: 13 µM

CC(C)(C)CNc1ccc(C(N)=O)cn1
IC50 [1]: 0.14 µM

NC(=O)c1ccc(NC2(c3cccc(N4CCNCC4)c3)CC2)nc1
IC50 [1]: 0.011 µM | MIC [2]: > 1020 µg/mL | MIC [3]: 1020 µg/mL (≈ 3030 µM) | MIC [4]: > 1020 µg/mL | logD [5]: 1.4

NCc1cccc(CNc2ccc(C(N)=O)cn2)c1
IC50 [1]: 1.4 µM

CC(C)[C@H]1CN(C(=O)Cn2c(C3CC3)cc3cc(C(N)=O)cnc32)CCN1
IC50 [1]: 0.096 µM | MIC [2]: > 1020 µg/mL | MIC [3]: 1020 µg/mL (≈ 2770 µM) | MIC [4]: > 1020 µg/mL

CN(C(=O)Cn1c(C2CC2)cc2cc(C(N)=O)cnc21)[C@@H]1C[C@H]2CC[C@@H](C1)N2
IC50 [1]: 0.036 µM | MIC [2]: > 1020 µg/mL | MIC [3]: > 512 µg/mL | MIC [4]: > 512 µg/mL | logD [5]: 0.2

NC(=O)c1cnc2c(c1)cc(C1CC1)n2CC(=O)N1CCNCC1
IC50 [1]: 0.013 µM | MIC [2]: > 1020 µg/mL | MIC [6]: 256 µg/mL (≈ 782 µM) | MIC [7]: > 256 µg/mL | MIC [8]: > 256 µg/mL | MIC [9]: > 256 µg/mL | MIC [10]: > 64 µg/mL | MIC [11]: > 256 µg/mL | MIC [12]: > 256 µg/mL | MIC [13]: > 256 µg/mL | MIC [14]: > 256 µg/mL | CC50 [15]: > 256 µg/mL | MIC [16]: > 256 µg/mL | MIC [4]: > 1020 µg/mL | MIC [17]: > 256 µg/mL | MIC [18]: > 256 µg/mL | logD [5]: -0.1

C[C@@H](Nc1ccc(C(N)=O)cn1)c1ccccc1
IC50 [1]: 48 µM

CN1CCN(C(=O)Cn2c(C3CC3)cc3cc(C(N)=O)cnc32)CC1
IC50 [1]: 0.038 µM | MIC [2]: > 512 µg/mL | MIC [3]: > 1020 µg/mL | MIC [4]: > 512 µg/mL | logD [5]: 2.7

NC(=O)c1ccc2nc(N)sc2c1
IC50 [1]: 150 µM | Kd [19]: 420 µM

NC(=O)c1ccc(NCc2ccccc2)nc1
IC50 [1]: 3.2 µM

CN(C(=O)Cn1ccc2cc(C(N)=O)cnc21)C1CCNCC1
IC50 [1]: 0.83 µM

CC(C)(CNc1ccc(C(N)=O)cn1)c1cccc(CN)c1
IC50 [1]: 0.009 µM | MIC [2]: > 1020 µg/mL | MIC [6]: 256 µg/mL (≈ 858 µM) | MIC [7]: > 256 µg/mL | MIC [8]: > 256 µg/mL | MIC [9]: > 256 µg/mL | MIC [10]: > 64 µg/mL | MIC [11]: > 256 µg/mL | MIC [12]: > 256 µg/mL | MIC [13]: > 256 µg/mL | MIC [14]: > 256 µg/mL | CC50 [15]: > 256 µg/mL | MIC [16]: > 256 µg/mL | MIC [3]: 256 µg/mL (≈ 858 µM) | MIC [4]: > 1020 µg/mL | MIC [17]: > 256 µg/mL | MIC [18]: > 256 µg/mL

CN1CCC(N(C)C(=O)Cn2c(C3CC3)cc3cc(C(N)=O)cnc32)CC1
IC50 [1]: 0.039 µM | MIC [2]: > 1020 µg/mL | MIC [3]: > 256 µg/mL | MIC [4]: > 512 µg/mL

CC(C)(CNc1ccc(C(N)=O)cn1)c1ccccc1
IC50 [1]: 0.027 µM | MIC [2]: 256 µg/mL | MIC [6]: 256 µg/mL (≈ 950 µM) | MIC [7]: > 256 µg/mL | MIC [8]: > 256 µg/mL | MIC [9]: 128 µg/mL (≈ 475 µM) | MIC [10]: > 64 µg/mL | MIC [11]: > 256 µg/mL | MIC [12]: > 256 µg/mL | MIC [13]: > 256 µg/mL | MIC [14]: 128 µg/mL (≈ 475 µM) | CC50 [15]: > 128 µg/mL | MIC [16]: > 256 µg/mL | MIC [3]: 512 µg/mL (≈ 1900 µM) | MIC [4]: 512 µg/mL (≈ 1900 µM) | MIC [17]: > 256 µg/mL | MIC [18]: > 256 µg/mL | logD [5]: 3

NC(=O)c1ccc(NC2CCCC2)nc1
IC50 [1]: 0.11 µM

NC(=O)c1cnc2c(c1)cc(C1CC1)n2CC(=O)N1CCNC(=O)C1
IC50 [1]: 0.12 µM | MIC [2]: > 1020 µg/mL | MIC [3]: > 512 µg/mL | MIC [4]: > 1020 µg/mL

NC(=O)c1ccc(NC2(c3ccccc3)CC2)nc1
IC50 [1]: 0.27 µM

NCc1ccc(Cn2ccc3cc(C(N)=O)cnc32)cc1
IC50 [1]: 1.9 µM

NC(=O)c1ccc(N)cn1
IC50 [1]: > 1000 µM

C[C@H](Nc1ccc(C(N)=O)cn1)c1ccccc1
IC50 [1]: 1.3 µM

CC(C)(Nc1ccc(C(N)=O)cn1)c1ccccc1
IC50 [1]: 2.1 µM

OCc1cc(-c2cccs2)[nH]n1
IC50 [1]: 320 µM | Kd [19]: 260 µM

NCc1ccc(Cn2c(C3CC3)cc3cc(C(N)=O)cnc32)cc1
IC50 [1]: 0.31 µM | MIC [2]: 1020 µg/mL | MIC [3]: > 1020 µg/mL | MIC [4]: 1020 µg/mL (≈ 3200 µM) | logD [5]: 1.4

CNC(=O)Cn1ccc2cc(C(N)=O)cnc21
IC50 [1]: 64 µM

CC(C)(CNc1ccc(C(N)=O)cn1)c1cccc(NC2CNC2)c1
IC50 [1]: 0.13 µM | MIC [2]: > 1020 µg/mL | MIC [3]: > 512 µg/mL | MIC [4]: > 1020 µg/mL | logD [5]: 1

NC(=O)c1cnc2c(ccn2CC(=O)N2CCNCC2)c1
IC50 [1]: 0.8 µM

NC(=O)c1ccc(NCc2cccc(N3CCNCC3)c2)nc1
IC50 [1]: 0.31 µM | MIC [2]: > 1020 µg/mL | MIC [3]: 1020 µg/mL (≈ 3290 µM) | MIC [4]: > 1020 µg/mL | logD [5]: 1

NCc1ccc(CNc2ccc(C(N)=O)cn2)cc1
IC50 [1]: 2.3 µM

CN(C(=O)Cn1c(C2CC2)cc2cc(C(N)=O)cnc21)C1CCNCC1
IC50 [1]: 0.037 µM | MIC [2]: > 512 µg/mL | MIC [3]: > 1020 µg/mL | MIC [4]: > 256 µg/mL | logD [5]: -0.2

CC(C)(CNc1ccc(C(N)=O)cn1)c1cccc(N2CCNCC2)c1
IC50 [1]: 0.05 µM | MIC [2]: 1020 µg/mL | MIC [3]: > 1020 µg/mL | MIC [4]: 1020 µg/mL (≈ 2900 µM) | logD [5]: 1.6

NC(=O)c1ccc(N)nc1 [6-AMINONICOTINAMIDE]
IC50 [1]: 26 µM | Kd [19]: 1.3 µM

CC[C@H]1OC(=O)[C@H](C)[C@@H](O[C@H]2C[C@@](C)(OC)[C@@H](O)[C@H](C)O2)[C@H](C)[C@@H](O[C@@H]2O[C@H](C)C[C@H](N(C)C)[C@H]2O)[C@](C)(O)C[C@@H](C)C(=O)[C@H](C)[C@@H](O)[C@]1(C)O [ERYTHROMYCIN]
MIC [2]: 0.5 µg/mL | MIC [20]: 64 µg/mL (≈ 87.2 µM) | MIC [3]: 4 µg/mL (≈ 5.45 µM) | MIC [4]: 8 µg/mL (≈ 10.9 µM)
